We go through 1 compound from BindingDB's records for doi:10.1021/jm0700924 (Astex Therapeutics, 2007).

The target in assay [1] is cAMP-dependent protein kinase catalytic subunit alpha (Bos taurus, UniProt P00517). Put plainly: PKA In Vitro Enzyme Assay. The following applies: pH 7.2; 22 °C.
Assay [2] addresses RAC-beta serine/threonine-protein kinase (Homo sapiens, UniProt P31751). The experiment in a line: PKB In Vitro Enzyme Assay. The following applies: pH 7.2; 22 °C.

Sequence of RAC-beta serine/threonine-protein kinase (P31751 whole entry): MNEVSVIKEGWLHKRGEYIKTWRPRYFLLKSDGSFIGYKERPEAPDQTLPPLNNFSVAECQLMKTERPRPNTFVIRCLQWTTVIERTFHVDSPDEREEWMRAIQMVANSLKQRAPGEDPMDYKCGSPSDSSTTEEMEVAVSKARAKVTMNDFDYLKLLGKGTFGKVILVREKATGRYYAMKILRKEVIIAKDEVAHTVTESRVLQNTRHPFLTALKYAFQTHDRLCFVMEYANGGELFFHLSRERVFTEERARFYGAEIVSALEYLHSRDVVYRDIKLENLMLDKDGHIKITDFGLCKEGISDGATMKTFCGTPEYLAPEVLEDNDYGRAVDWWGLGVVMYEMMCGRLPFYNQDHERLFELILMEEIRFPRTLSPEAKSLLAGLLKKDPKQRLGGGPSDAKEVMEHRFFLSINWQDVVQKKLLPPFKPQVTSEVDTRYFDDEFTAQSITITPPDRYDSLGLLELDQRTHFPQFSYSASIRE

For orientation: IC50 means the concentration that inhibits the measured activity by half. With `CNCC(c1ccc(Cl)cc1)c1ccc(-c2ncnc3nc[nH]c23)cc1` (configuration not stated) [[2-(4-chlorophenyl)-2-[4-(9H-purin-6-yl)phenyl]ethyl](methyl)amine], the IC50 in assay [1] worked out at 15 nM; in assay [2], 10 nM.
